# Patent US7671056B2, “Piperazine-piperidine antagonists and agonists of the 5-HT1A receptor” (Wyeth LLC, priority 2005, dated 2010)
# Like-named read-outs stand apart in the source and are kept apart here.
# Legend:
# [1] = target: T1, human 5-HT1A receptor (Homo sapiens, UniProt P08908); assay: Radioligand binding with [3H]8-OH-DPAT on membranes of 5-HT1A.CHO cells
# T1 construct: expressed in transfected cells
# T1 sequence (P08908 1-422): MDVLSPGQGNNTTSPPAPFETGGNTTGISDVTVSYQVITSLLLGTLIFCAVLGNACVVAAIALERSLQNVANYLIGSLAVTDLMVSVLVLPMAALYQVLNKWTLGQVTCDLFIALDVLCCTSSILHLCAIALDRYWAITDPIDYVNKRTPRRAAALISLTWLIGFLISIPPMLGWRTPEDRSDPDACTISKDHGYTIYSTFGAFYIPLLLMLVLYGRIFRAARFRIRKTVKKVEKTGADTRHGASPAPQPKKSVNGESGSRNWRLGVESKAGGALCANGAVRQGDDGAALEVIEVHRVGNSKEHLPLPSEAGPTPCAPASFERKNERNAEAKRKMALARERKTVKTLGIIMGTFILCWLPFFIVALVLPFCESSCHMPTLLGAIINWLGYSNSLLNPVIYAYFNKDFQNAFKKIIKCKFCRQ
# Method: The PCR cloning of the human 5-HT1A receptor subtype from a human genomic library has been described previously (Chanda et al., Mol. Pharmacol., 43:516 (1993)). A stable Chinese hamster ovary cell line expressing the human 5-HT1A receptor subtype (5-HT1A.CHO cells) was employed throughout this study. Cells were maintained in DMEM supplemented with 10% fetal calf serum, non-essential amino acids and penicillin/streptomycin. Radioligand binding assays were performed as described in Dunlop, J. et al., J. Pharmacol. and Toxicol. Methods 40: 47-55 (1998), which is incorporated by reference. Cells were grown to 95-100% confluency as a monolayer before membranes were harvested for binding studies. Cells were gently scraped from the culture plates, transferred to centrifuge tubes, and washed twice by centrifugation (2000 rpm for 10 min., 4° C.) in buffer (50 mM Tris; pH 7.5). The resulting pellets were aliquoted and placed at −80° C. On the day of assay, the cells were thawed on ice, and resuspended in buffer. Studies were conducted using [^3H]8-OH-DPAT as the radioligand. The binding assay was performed in 96 well microtiter plates in a final total volume of 250 μL of buffer. Competition experiments were performed by using seven different concentrations of unlabelled drug and a final ligand concentration of 1.5 nM. Non-specific binding was determined in the presence of 10 μM 5HT. Saturation analysis was conducted by using [^3H]8-OH-DPAT at concentrations ranging from 0.3-30 nM. Following a 30 minute incubation at room temperature, the reaction was terminated by the addition of ice cold buffer and rapid filtration using a M-96 Brandel Cell Harvester (Gaithersburg, Md.) through a GF/B filter presoaked for 30 minutes in 0.5% polyethyleneimine. Table 1 provides Ki values for the tested compounds.
# [2] = target: T1, human 5-HT1A receptor; assay: cAMP measurements, antagonist mode: block of 8-OH-DPAT-induced inhibition of forskolin-stimulated cAMP; format: cell-based
# Method: The PCR cloning of the human 5-HT1A receptor subtype from a human genomic library has been described previously (Chanda et al., Mol. Pharmacol., 43:516 (1993)). A stable Chinese hamster ovary cell line expressing the human 5-HT1A receptor subtype (5-HT1A.CHO cells) was employed throughout this study. Cells were maintained in DMEM supplemented with 10% fetal calf serum, non-essential amino acids and penicillin/streptomycin. Measurements were performed as described in Dunlop, J. et al., supra. Assays were performed by incubating the cells with DMEM containing 25 mM HEPES, 5 mM theophylline and 10 μM pargyline for a period of 20 minutes at 37° C. […] The reaction was terminated by removal of the media and addition of 0.5 ml ice cold assay buffer. Plates were stored at −20° C. prior to assessment of cAMP formation by a cAMP SPA assay (Amersham). Compounds of the invention were tested according to the protocol described. […] Compounds having 5-HT1A antagonist activity show no effect on forskolin-induced increases in cAMP levels on their own, but block the 8-OH-DPAT-induced inhibition of forskolin-stimulated increases in cAMP levels. Results are required as IC50 values (Table 1, “Antagonist Activity IC50”)
# [3] = target: T1, human 5-HT1A receptor; assay: cAMP measurements, agonist mode: inhibition of forskolin-induced increase in cAMP; format: cell-based; settings: forskolin 1 uM, 5-HT1A.CHO cells
# Method: The PCR cloning of the human 5-HT1A receptor subtype from a human genomic library has been described previously (Chanda et al., Mol. Pharmacol., 43:516 (1993)). A stable Chinese hamster ovary cell line expressing the human 5-HT1A receptor subtype (5-HT1A.CHO cells) was employed throughout this study. Cells were maintained in DMEM supplemented with 10% fetal calf serum, non-essential amino acids and penicillin/streptomycin.
# Measurements were performed as described in Dunlop, J. et al., supra. Assays were performed by incubating the cells with DMEM containing 25 mM HEPES, 5 mM theophylline and 10 μM pargyline for a period of 20 minutes at 37° C. Functional activity was assessed by treating the cells with forskolin (1 uM final concentration) followed immediately by test compound (6 different concentrations) for an additional 10 minutes at 37° C. In separate experiments, 6 concentrations of antagonist were preincubated for 20 min prior to the addition of 10 nM 8-OH-DPAT and forskolin. The reaction was terminated by removal of the media and addition of 0.5 ml ice cold assay buffer. Plates were stored at −20° C. prior to assessment of cAMP formation by a cAMP SPA assay (Amersham). […]
# [4] = [3H]8-OH-DPAT 1.5 nM, 5-HT1A.CHO cell membranes, read-out: 5-HT1A Affinity Ki
# [5] = 10 nM 8-OH-DPAT and forskolin, 5-HT1A.CHO cells, read-out: Antagonist Activity IC50
"Ki [1, 4]",EC50 [3],"IC50 [2, 5]",SMILES,IC50 [2],Ki [1]
1.2 nM,29.5 nM,–,"COc1cc(N2CCN(C3CCN(c4cccc5cc(C(F)(F)F)cnc45)CC3)CC2)c2ncccc2c1 [L, 8-{4-[4-(6-Methoxyquinolin-8-yl)piperazin-1-yl]piperidin-1-yl}-3-(trifluoromethyl)quinoline]",–,–
0.24 nM,6.85 nM,–,"Fc1ccc(N2CCC(N3CCN(c4cccc5cccnc45)CC3)CC2)c2ncccc12 [C, 5-fluoro-8-{4-[4-(8-quinolinyl)-1-piperazinyl]-1-piperidinyl}-quinoline]",–,–
0.15 nM,–,23.5 nM,Fc1ccc(N2CCN(C3CCN(c4cccc5cccnc45)CC3)CC2)c2ncccc12 [Example 15],–,–
1.45 nM,2.53 nM,–,"COc1ccccc1N1CCN(C2CCN(c3noc4ccccc34)CC2)CC1 [H, 3-{4-[4-(2-methoxyphenyl)-1-piperazinyl]-1-piperidinyl}-1,2-benzisoxazole]",–,–
0.4 nM,–,3.86 nM,"COc1cc(N2CCN(C3CCN(c4cccc5cccnc45)CC3)CC2)c2ncccc2c1 [A, 6-Methoxy-8-{4-[1-(8-quinolinyl)-4-piperidinyl]-1-piperazinyl}quinoline]",–,–
–,–,–,"COc1cc(N2CCN(C3CCN(c4ccc(F)c5c(OC)cc(C(F)(F)F)nc45)CC3)CC2)c2ncccc2c1 [N, 5-fluoro-4-methoxy-8-(4-(4-(6-methoxyquinolin-8-yl)piperazin-1-yl)piperidin-1-yl)-2-(trifluoromethyl)quinoline]",9.2 nM,2.02 nM
0.31 nM,20 nM,–,"Clc1ccc(N2CCN(C3CCN(c4cccc5cccnc45)CC3)CC2)c2ncccc12 [Example 8, 5-chloro-8-{4-[1-(8-quinolinyl)-4-piperidinyl]-1-piperazinyl}quinoline]",–,–
1.45 nM,–,64.5 nM,"COc1ccc(N2CCN(C3CCN(c4cccc5cccnc45)CC3)CC2)c2ncccc12 [Example 14, 5-Methoxy-8-{4-[1-(8-quinolinyl)-4-piperidinyl]-1-piperazinyl}-quinoline]",–,–
3.04 nM,–,35.5 nM,"FC(F)(F)c1ccc(N2CCN(C3CCN(c4cccc5cccnc45)CC3)CC2)c2ncccc12 [Example 12, 8-{4-[1-(8-quinolinyl)-4-piperidinyl]-1-piperazinyl}-5-(trifluoromethyl)quinoline]",–,–
0.83 nM,3.28 nM,–,"Cc1ccc2cccc(N3CCN(C4CCN(c5cccc6cccnc56)CC4)CC3)c2n1 [Example 10, 2-methyl-8-{4-[1-(8-quinolinyl)-4-piperidinyl]-1-piperazinyl}quinoline]",–,–
500 nM,–,–,"Clc1cc(N2CCC(N3CCN(c4cc(Cl)cc5cccnc45)CC3)CC2)c2ncccc2c1 [Example 4, 6-chloro-8-{4-[4-(6-chloro-8-quinolinyl)-1-piperazinyl]-1-piperidinyl}quinoline]",–,–
26.7 nM,22 nM,–,"COc1ccccc1N1CCN(C2CCN(c3csc4ccccc34)CC2)CC1 [G, 1-[1-(1-benzothien-3-yl)-4-piperidinyl]-4-(2-methoxyphenyl)piperazine]",–,–
0.48 nM,3.84 nM,–,"Clc1cc(N2CCN(C3CCN(c4cccc5cccnc45)CC3)CC2)c2ncccc2c1 [Example 11, 6-chloro-8-{4-[1-(8-quinolinyl)-4-piperidinyl]-1-piperazinyl}quinoline]",–,–
1.69 nM,–,10.8 nM,"Fc1ccc2occ(N3CCN(C4CCN(c5ccc(F)c6cccnc56)CC4)CC3)c2c1 [F, 5-fluoro-8-{4-[4-(5-fluoro-1-benzofuran-3-yl)-1-piperazinyl]-1-piperidinyl}quinoline]",–,–
0.38 nM,2.4 nM,–,"c1cc2c(c(N3CCN(C4CCN(c5cccc6cccnc56)CC4)CC3)c1)OCCO2 [E, 8-{4-[4-(2,3-dihydro-1,4-benzo[1,4]dioxane-5-yl)-1-piperazinyl]-1-piperidinyl}quinoline]",–,–
–,–,3.7 nM,"COc1cc(N2CCN(C3CCN(c4ccc(F)c5cccnc45)CC3)CC2)c2ncccc2c1 [P, 5-Fluoro-8-(4-(4-(6-methoxyquinolin-8-yl)piperazin-1-yl)piperidin-1-yl)-quinoline]",–,–
106 nM,–,–,"Fc1cc(N2CCN(C3CCN(c4cc(Cl)cc5cccnc45)CC3)CC2)c2ncccc2c1 [Example 5, 8-{4-[1-(6-chloro-8-quinolinyl)-4-piperidinyl]-1-piperazinyl}-6-fluoroquinoline]",–,–
–,–,–,"Clc1cc(N2CCC(N3CCN(c4cccc5[nH]ccc45)CC3)CC2)c2ncccc2c1 [I, 6-Chloro-8-{4-[4-(1H-indole-4-yl)-1-piperazinyl]-1-piperidinyl}quinoline]",–,40.8 nM
0.4 nM,10 nM,–,"c1cnc2c(N3CCC(N4CCN(c5cccc6cccnc56)CC4)CC3)cccc2c1 [Example 3, 8-{4-[1-(8-quinolinyl)-4-piperidinyl]-1-piperazinyl}quinoline]",–,–
148 nM,–,1080 nM,"Clc1cc(N2CCC(N3CCN(c4coc5ccccc45)CC3)CC2)c2ncccc2c1 [Example 16, 8-{4-[4-(1-Benzofuran-3-yl)-1-piperazinyl]-1-piperidinyl}-6-chloroquinoline]",–,–
0.46 nM,–,25 nM,"Fc1cc(N2CCN(C3CCN(c4cccc5cccnc45)CC3)CC2)c2ncccc2c1 [B, 6-fluoro-8-{4-[1-(8-quinolinyl)-4-piperidinyl]-1-piperazinyl}quinoline]",–,–
0.27 nM,0.83 nM,–,"Fc1cc(N2CCN(C3CCN(c4ccc5cccnc5c4F)CC3)CC2)c2ncccc2c1 [K, 6-Fluoro-8-{4-[1-(8-fluoroquinolin-7-yl)piperidin-4-yl]piperazin-1-yl}quinoline]",–,–
75.7 nM,–,176 nM,"COc1cc(N2CCN(C3CCN(Cc4cccc5cccnc45)CC3)CC2)c2ncccc2c1 [M, 6-Methoxy-8-{4-[1-(quinolin-8-ylmethyl)piperidin-4-yl]piperazin-1-yl}quinoline]",–,–

SMILES,"Ki [1, 4]",EC50 [3],"IC50 [2, 5]",IC50 [2],Ki [1]
"c1cnc2c(N3CCC(N4CCN(c5cccc6[nH]ccc56)CC4)CC3)cccc2c1 [D, 8-{4-[4-(1H-indole-4-yl)-1-piperazinyl]-1-piperidinyl}quinoline]",0.59 nM,–,–,24 nM,–
"COc1cc(N2CCN(C3CCN(c4c(F)ccc5cccnc45)CC3)CC2)c2ncccc2c1 [J, 8-{4-[1-(7-Fluoroquinolin-8-yl)piperidin-4-yl]piperazin-1-yl}-6-methoxyquinoline]",0.61 nM,–,9.95 nM,–,–
